US20260130933A1, “PHARMACEUTICAL COMPOSITION FOR PREVENTION OR TREATMENT OF NEPHROPATHY AND/OR DIABETES MELLITUS, COMPRISING ENAVOGLIFLOZIN” (DAEWOONG PHARMACEUTICAL CO., LTD., priority 2022, published 2026)

Test: Example 4: subgroup of patients with proteinuria (baseline UACR of 30 to 3500 g/kg) of Examples 1 to 3, percent change in UACR at week 24
Assay type: in vivo, human
Details: for UACR decrease at week 24 compared to baseline: proteinuria subgroup
Excerpt: Among the patient groups that received the test drugs and the control drug of Examples 1 to 3, a group of patients with proteinuria (baseline UACR of 30 to 3500 g/kg) was additionally analyzed.
Among the patients in Example 1, a subgroup with baseline UACR of 30 to 3500 g/kg was classified as a group of patients with proteinuria.
Among the patients in Example 2, a subgroup with the baseline UACR of 30 to 3500 g/kg was classified as a group of patients with proteinuria.
Similarly, among the patients in Example 3, a subgroup with the baseline UACR of 30 to 3500 g/kg was classified as a group of patients with proteinuria.

[1] = week 24, Example 2 (with metformin), per-protocol set, UACR 30-3500 g/kg at baseline
[2] = week 24, Example 3 (with metformin and gemigliptin), per-protocol set, UACR 30-3500 g/kg baseline
[3] = week 24, Example 1 (monotherapy), full analysis set, UACR 30-3500 g/kg at baseline

CCOc1ccc(Cc2cc([C@@H]3O[C@H](CO)[C@@H](O)[C@H](O)[C@H]3O)ccc2Cl)cc1 [Dapagliflozin, reference compound]
Percent change from baseline in UACR, Mean [1]: −26.01% | Percent change from baseline in UACR, Median [1]: −39.48% | UACR, Mean [1]: 93.37 g/kg | UACR, Median [1]: 45.70 g/kg | Percent change from baseline in UACR, Mean [2]: −13.09% | Percent change from baseline in UACR, Median [2]: −39.84% | UACR, Mean [2]: 80.60 g/kg | UACR, Median [2]: 43.10 g/kg

OC[C@H]1O[C@@H](c2cc(Cc3ccc(C4CC4)cc3)c(Cl)c3c2CCO3)[C@H](O)[C@@H](O)[C@@H]1O [Enavogliflozin, (2S,3R,4R,5S,6R)-2-(7-chloro-6 (4-cyclopropylbenzyl)-2,3-dihydrobenzofuran-4-yl)-6-(hydroxymethyl)tetrahydro-2H-pyran-3,4,5-triol]
UACR decrease at week 24 compared to baseline (dual combination therapy with metformin): 47.35% | UACR decrease at week 24 compared to baseline (enavogliflozin administered alone): 46.06% | UACR decrease at week 24 compared to baseline (triple combination therapy with metformin and gemigliptin): 36.03% | UACR change, decrease compared to the dapagliflozin-administered patient group (two studies (Examples 2 and 3) combined): 20.72% | Percent change from baseline in UACR, Difference (enavogliflozin 0.3 mg − Placebo) [3]: −50.89% | Percent change from baseline in UACR, Mean [3]: −46.06% | Percent change from baseline in UACR, Median [3]: −64.48% | UACR, Mean [3]: 70.29 g/kg | UACR, Median [3]: 26.05 g/kg | Percent change from baseline in UACR, Difference (enavogliflozin 0.3 mg − dapagliflozin 10 mg) [1]: −21.33% | Percent change from baseline in UACR, Mean [1]: −47.35% | Percent change from baseline in UACR, Median [1]: −48.74% | UACR, Mean [1]: 45.64 g/kg | UACR, Median [1]: 27.65 g/kg | Percent change from baseline in UACR, Difference (enavogliflozin 0.3 mg − dapagliflozin 10 mg) [2]: −22.94% | Percent change from baseline in UACR, Mean [2]: −36.03% | Percent change from baseline in UACR, Median [2]: −55.97% | UACR, Mean [2]: 75.40 g/kg | UACR, Median [2]: 46.80 g/kg
